Measurements from US8796268B2, “Heteroaryls and uses thereof” (Millennium Pharmaceuticals, Inc., priority 2010, dated 2014).

How the values were obtained:
Type in all cases: biochemical
Human PI3K delta = molecular target: T1, Human PI3K delta (Homo sapiens, UniProt O00329); assay: Human PI3K delta enzyme assay (HTRF); details: concentration not given, b1389 states 1.0 μM for PI3K δ and γ; for inhibition at 1 µM: read-out: p110 delta Percent Inhibition
T1 construct: His (N); host or cells: SF9 insect cells (baculovirus)
T1 sequence (O00329 whole entry): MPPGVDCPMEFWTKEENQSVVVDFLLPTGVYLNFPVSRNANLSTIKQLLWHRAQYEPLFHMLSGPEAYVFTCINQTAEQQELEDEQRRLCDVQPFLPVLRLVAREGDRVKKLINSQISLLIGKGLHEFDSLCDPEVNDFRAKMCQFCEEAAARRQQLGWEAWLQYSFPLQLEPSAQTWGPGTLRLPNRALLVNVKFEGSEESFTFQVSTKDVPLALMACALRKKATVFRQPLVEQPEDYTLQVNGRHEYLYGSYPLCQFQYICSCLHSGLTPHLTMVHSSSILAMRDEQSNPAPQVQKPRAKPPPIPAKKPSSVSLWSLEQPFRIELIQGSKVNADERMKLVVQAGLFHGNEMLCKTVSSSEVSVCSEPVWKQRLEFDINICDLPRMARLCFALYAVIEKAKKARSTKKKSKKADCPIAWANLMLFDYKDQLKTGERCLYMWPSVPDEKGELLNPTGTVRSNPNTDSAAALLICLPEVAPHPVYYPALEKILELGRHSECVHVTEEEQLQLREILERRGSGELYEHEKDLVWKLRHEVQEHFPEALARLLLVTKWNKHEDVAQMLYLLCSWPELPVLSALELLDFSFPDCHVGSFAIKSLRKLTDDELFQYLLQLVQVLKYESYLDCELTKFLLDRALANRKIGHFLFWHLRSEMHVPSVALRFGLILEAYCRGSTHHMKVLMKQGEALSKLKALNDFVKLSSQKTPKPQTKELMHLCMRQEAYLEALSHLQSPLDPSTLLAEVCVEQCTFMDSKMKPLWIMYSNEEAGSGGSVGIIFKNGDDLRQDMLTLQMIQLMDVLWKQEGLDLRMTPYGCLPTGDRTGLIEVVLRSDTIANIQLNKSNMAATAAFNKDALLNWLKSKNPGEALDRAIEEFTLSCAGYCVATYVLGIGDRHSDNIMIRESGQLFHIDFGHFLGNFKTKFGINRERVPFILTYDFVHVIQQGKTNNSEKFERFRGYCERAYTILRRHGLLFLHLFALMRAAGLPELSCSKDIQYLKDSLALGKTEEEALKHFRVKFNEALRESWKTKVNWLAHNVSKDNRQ
T1 sequence (P27986 whole entry partner): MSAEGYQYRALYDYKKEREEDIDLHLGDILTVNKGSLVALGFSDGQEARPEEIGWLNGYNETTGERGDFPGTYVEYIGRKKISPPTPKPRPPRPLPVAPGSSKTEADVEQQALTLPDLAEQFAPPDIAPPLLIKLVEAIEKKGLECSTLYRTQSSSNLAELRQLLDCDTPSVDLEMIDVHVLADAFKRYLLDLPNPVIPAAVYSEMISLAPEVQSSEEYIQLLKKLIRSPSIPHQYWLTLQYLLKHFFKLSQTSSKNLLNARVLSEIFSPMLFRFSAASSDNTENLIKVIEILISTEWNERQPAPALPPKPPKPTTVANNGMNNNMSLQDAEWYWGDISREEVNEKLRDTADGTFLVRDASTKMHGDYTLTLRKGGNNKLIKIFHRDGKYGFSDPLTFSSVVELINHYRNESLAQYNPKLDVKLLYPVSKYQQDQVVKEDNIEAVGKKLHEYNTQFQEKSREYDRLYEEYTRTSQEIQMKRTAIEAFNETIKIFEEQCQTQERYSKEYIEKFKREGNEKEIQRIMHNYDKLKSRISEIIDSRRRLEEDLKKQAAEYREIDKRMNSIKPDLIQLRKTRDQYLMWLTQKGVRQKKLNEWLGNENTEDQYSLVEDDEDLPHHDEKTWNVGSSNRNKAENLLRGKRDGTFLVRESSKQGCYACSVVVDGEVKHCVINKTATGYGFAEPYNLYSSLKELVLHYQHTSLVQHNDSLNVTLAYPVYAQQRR
Description: (§1) The catalytic subunits of PI3Ks are cloned into either pDEST8(p110 alpha) or pDEST10(p110beta, p110delta, and p110gamma) as N-terminal His tagged fusion proteins using the Gateway system (Invitrogen, catalog#11804-010 for pDEST8 and 11806-015 for pDEST10). The sequences are verified before recombinant protein expression using the Baculovirus Expression System with Gateway® Technology. The accession numbers for the subunits are as follows: • p110 alpha (GB:U79143) • p110beta (GB: S67334) • p110delta (GB: U86453) • p110gamma (GB: X83368) • The regulatory subunits of PI3Ks are cloned into pDEST8 as un-tagged protein using the Gateway system (Catalog#11804-010). The sequences are verified before recombinant protein expression using the Baculovirus Expression System with Gateway® Technology. The accession numbers for the subunits are as following: • p85 alpha (GB: BC030815) • p101(GB: AB028925) • VPS34 (accession number GB:BC033004) is cloned into pDEST20—Thombin as N-terminal GST tagged fusion proteins using the Gateway system (Invitrogen, catalog#11804-013). The sequences are verified before recombinant protein expression using the Baculovirus Expression System with Gateway® Technology.
(§2) For expression of the p110 complexes, the p85 (MOI of 4) is co-infected with p110 alpha, beta, and delta respectively (1MOI) in SF9 cells and harvested at 60 hours post co-infection. P110 gamma was infected at 1 MOI and harvested at 60 hours post infection.
(§3) For purification, PI3Ks are purified by Ni-NTA Agarose (Qiagen #30250) followed by Mono Q 10/100 GL (Ge Healthcare #17-5167-01). VPS34 is purified by Glutathione Sepharose 4 Fast Flow (GE Healthcare #17-5132-03) followed by HiTrap Q (GE Healthcare #17-1153-01).
(§4) 0.5 uL compounds in DMSO are added to wells of a 384 well microtitre plate (Corning 3575). At room temperature: 10 ul PI3K reaction buffer (50 mM Hepes, 5 mM DTT, 150 mM NaCl, 10 mM beta-glycerophosphate, 10 mM MgCl2, 0.25 mM sodium cholate and 0.001% CHAPS, pH 7.00) containing ATP (25 uM, Promega) is added followed immediately by 10 ul PI3K reaction buffer containing di-C8 P1(4,5)P2 (3.5 uM, CellSignals) and PI3Kalpha (0.4875 nM, Millennium Protein Sciences Group) and the mixture is incubated with shaking at room temperature for 30 minutes. Then 5 ul PI3K stop mix (50 mM Hepes, 5 mM DTT, 150 mM NaCl, 0.01% Tween-20, 15 mM EDTA and 25 nM biotin-PI(3,4,5)P3 (Echelon) is added to quench the reaction followed immediately by addition of 5 ul HTRF detection mix (50 mM Hepes, 5 mM DTT, 150 mM NaCl, 0.01% Tween-20, 40 mM KF, 1.0 nM GST:GRP-1 PH domain (Millennium Protein Sciences Group), 15 nM Streptavidin-XL (CisBio) and 0.375 nM anti-GST Eu++ antibody (CisBio) at pH 7.00). The plates are then incubated for 1 hour at room temperature with shaking and then read on a BMG PheraStar Plus reader.
(§5) 2) Human PI3K beta, delta and gamma isoforms are tested using the procedure described for PI3K alpha above but with the following changes: PI3K beta (5.25 nM), PI3K delta (0.75 nM) and PI3K gamma (5 nM). All isoforms supplied by Millennium Protein Science Group.
(§6) For the assay methods described above, test compound percent inhibition, at various concentrations, is calculated relative to control (DMSO and EDTA) treated samples. Compound concentration versus percent inhibition curves are fitted to generate IC50 values. One skilled in the art will appreciate that the values generated either as percentage inhibition at a single concentration or IC50 values are subject to experimental variation.

Human PI3K alpha = molecular target: T2, Human PI3K alpha (Homo sapiens, UniProt P42336); assay: Human PI3K alpha enzyme assay (HTRF); details: concentration not given, b1387 states 1.1 μM for PI3K α and β; for inhibition at 1.1 µM: read-out: p110 alpha Percent Inhibition
T2 construct: His (N); host or cells: SF9 insect cells (baculovirus)
T2 sequence (P42336 whole entry): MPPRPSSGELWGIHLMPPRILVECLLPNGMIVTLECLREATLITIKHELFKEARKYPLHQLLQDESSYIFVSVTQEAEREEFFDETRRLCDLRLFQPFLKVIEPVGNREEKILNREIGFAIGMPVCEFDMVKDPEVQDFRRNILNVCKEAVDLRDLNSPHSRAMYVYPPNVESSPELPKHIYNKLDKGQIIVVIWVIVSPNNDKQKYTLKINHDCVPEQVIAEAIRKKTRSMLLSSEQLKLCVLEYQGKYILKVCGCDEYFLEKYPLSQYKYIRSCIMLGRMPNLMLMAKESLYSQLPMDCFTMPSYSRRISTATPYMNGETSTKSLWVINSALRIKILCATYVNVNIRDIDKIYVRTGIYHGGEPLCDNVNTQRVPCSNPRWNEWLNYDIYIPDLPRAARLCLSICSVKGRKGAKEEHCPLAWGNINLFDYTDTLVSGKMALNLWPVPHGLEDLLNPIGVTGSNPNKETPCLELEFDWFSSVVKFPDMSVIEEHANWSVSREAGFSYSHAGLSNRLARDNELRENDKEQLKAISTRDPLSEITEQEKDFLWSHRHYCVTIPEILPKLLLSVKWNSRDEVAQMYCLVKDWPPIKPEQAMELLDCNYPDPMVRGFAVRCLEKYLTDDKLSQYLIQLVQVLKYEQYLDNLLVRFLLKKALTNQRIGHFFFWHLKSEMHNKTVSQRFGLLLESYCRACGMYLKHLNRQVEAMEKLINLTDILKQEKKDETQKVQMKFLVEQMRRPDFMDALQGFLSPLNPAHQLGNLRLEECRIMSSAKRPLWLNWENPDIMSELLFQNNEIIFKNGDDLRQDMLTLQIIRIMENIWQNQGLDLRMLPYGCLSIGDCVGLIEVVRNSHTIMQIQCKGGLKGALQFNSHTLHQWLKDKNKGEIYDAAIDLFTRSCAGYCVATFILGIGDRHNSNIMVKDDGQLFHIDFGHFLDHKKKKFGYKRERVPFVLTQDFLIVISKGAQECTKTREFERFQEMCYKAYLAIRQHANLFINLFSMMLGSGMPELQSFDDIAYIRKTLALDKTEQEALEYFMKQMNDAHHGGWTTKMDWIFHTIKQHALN
T2 sequence (P27986 whole entry partner): as the sequence (P27986 whole entry partner) above

Human PI3K gamma = molecular target: T3, Human PI3K gamma (Homo sapiens, UniProt P48736); assay: Human PI3K gamma enzyme assay (HTRF); details: concentration not given, b1389 states 1.0 μM for PI3K δ and γ; for inhibition at 1 µM: read-out: p110 gamma Percent Inhibition
T3 construct: His (N); host or cells: SF9 insect cells (baculovirus)
T3 sequence (P48736 whole entry): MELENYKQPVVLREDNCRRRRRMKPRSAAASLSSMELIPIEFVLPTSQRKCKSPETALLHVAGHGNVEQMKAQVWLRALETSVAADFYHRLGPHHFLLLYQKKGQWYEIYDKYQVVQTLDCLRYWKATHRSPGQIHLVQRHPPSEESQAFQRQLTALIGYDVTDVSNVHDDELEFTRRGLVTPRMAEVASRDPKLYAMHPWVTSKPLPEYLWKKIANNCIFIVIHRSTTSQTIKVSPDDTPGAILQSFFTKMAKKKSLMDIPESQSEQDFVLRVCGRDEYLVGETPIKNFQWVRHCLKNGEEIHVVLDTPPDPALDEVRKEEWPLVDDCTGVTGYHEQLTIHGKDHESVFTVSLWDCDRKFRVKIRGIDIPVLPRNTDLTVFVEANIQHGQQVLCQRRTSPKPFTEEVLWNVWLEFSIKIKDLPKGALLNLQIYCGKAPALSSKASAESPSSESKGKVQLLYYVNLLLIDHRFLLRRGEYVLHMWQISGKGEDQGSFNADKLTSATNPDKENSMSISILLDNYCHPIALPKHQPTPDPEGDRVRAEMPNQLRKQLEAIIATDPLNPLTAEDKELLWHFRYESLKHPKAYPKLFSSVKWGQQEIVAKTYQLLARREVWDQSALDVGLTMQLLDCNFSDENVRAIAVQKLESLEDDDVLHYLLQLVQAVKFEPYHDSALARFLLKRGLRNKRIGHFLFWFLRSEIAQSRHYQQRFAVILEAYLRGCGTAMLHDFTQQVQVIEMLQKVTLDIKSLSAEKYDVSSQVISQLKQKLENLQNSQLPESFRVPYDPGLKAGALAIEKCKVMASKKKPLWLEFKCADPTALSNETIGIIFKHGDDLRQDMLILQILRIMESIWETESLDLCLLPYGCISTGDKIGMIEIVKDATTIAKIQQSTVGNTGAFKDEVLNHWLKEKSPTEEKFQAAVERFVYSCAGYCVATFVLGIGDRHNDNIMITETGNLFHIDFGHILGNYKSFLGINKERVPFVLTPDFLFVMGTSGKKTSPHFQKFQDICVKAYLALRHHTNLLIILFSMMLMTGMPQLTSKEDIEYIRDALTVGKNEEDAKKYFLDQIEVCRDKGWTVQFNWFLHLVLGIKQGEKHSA
Description: as §1, §2, §3, §4, §5, §6

Human PI3K beta = molecular target: T4, Human PI3K beta (Homo sapiens, UniProt P42338); assay: Human PI3K beta enzyme assay (HTRF); details: concentration not given, b1387 states 1.1 μM for PI3K α and β; for inhibition at 1.1 µM: read-out: p110 beta Percent Inhibition
T4 construct: His (N); host or cells: SF9 insect cells (baculovirus)
T4 sequence (P42338 whole entry): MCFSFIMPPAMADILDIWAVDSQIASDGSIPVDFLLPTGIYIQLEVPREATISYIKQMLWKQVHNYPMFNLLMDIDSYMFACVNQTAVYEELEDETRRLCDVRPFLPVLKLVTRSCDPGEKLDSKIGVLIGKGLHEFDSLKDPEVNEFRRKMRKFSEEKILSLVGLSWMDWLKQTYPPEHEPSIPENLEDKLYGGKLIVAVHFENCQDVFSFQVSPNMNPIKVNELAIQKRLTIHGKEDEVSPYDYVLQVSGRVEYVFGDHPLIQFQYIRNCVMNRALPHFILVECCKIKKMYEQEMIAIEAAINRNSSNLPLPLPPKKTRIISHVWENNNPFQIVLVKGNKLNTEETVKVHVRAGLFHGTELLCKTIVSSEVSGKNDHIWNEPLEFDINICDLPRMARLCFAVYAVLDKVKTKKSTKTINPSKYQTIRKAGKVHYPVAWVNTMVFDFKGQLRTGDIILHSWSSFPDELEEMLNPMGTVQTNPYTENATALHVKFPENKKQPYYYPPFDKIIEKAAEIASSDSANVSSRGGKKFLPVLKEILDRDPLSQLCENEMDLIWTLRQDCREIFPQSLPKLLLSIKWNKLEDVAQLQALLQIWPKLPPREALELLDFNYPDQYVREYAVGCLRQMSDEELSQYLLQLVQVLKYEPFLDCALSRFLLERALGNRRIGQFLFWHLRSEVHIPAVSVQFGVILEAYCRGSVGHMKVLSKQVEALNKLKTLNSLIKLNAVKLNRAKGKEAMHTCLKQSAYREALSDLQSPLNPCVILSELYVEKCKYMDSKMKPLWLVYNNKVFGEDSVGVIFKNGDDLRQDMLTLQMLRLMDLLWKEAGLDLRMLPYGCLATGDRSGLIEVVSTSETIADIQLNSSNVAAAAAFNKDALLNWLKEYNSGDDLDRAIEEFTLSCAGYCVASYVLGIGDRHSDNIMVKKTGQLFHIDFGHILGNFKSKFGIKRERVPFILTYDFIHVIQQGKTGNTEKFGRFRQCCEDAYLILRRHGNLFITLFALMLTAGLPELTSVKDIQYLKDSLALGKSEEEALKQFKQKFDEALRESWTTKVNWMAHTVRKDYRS
T4 sequence (P27986 whole entry partner): as the sequence (P27986 whole entry partner) above
In short: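 Compounds were mixed with 25 uM ATP, then with 3.5 uM di-C8 PI(4,5)P2 and His-tagged PI3K isoform (β 5.25 nM, δ 0.75 nM, γ 5 nM) at pH 7.00. After 30 min at room temperature, EDTA stopped the reaction and PIP3 was measured by HTRF over 1 h.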

SMILES	inhibition at 1 µM (Human PI3K delta) [%]	inhibition at 1.1 µM (Human PI3K alpha) [%]	inhibition at 1 µM (Human PI3K gamma) [%]	inhibition at 1.1 µM (Human PI3K beta) [%]	p110 alpha Percent Inhibition (Human PI3K alpha) [%]	p110 delta Percent Inhibition (Human PI3K delta) [%]	p110 gamma Percent Inhibition (Human PI3K gamma) [%]	p110 beta Percent Inhibition (Human PI3K beta) [%]
CC(=O)Nc1cc(-c2sc(-c3nnc[nH]3)c(S(=O)(=O)c3ccc(Cl)cc3)c2C#N)ccn1 [Compound 140, N-{4-[4-[(4-chlorophenyl)sulfonyl]-3-cyano-5-(4H-1,2,4-triazol-3-yl)-2-thienyl]pyridin-2-yl}acetamide]	74	76	62	47				
Cc1ccc(C(O)c2cc(-c3ccncc3)sc2-c2nnc[nH]2)c(C)c1 (stereo not drawn) [Compound 141]	66	17	15	89				
OC(c1ccc(C(F)(F)F)cc1)c1cc(-c2ccncc2)sc1-c1nnc[nH]1 (stereo not drawn) [Compound 142]	47	15	7	67				
N#Cc1c(-c2ccncc2)sc(C(=O)O)c1Cc1ccc2ccccc2c1 [Compound 143]	85	58	62	115				
N#Cc1c(-c2ccncc2)sc(-c2nnc[nH]2)c1Cc1ccc2ccccc2c1 [Compound 148]	69	41	34	98				
COc1cc(C(O)c2cc(-c3ccnc(Cl)c3)sc2-c2nnc[nH]2)c(F)cc1Cl (stereo not drawn) [Compound 149]					54	117	75	109
Nc1nccc(-c2sc(-c3ccncc3)nc2Cc2ccc(Cl)cc2)n1 [Compound 150, 4-(4-(4-chlorobenzyl)-2-(pyridin-4-yl)thiazol-5-yl)pyrimidin-2-amine]	35	2	6	54				
CC(=O)Nc1cc(-c2sc(-c3nnc[nH]3)c(C(O)c3ccc4ccccc4n3)c2C#N)ccn1 (stereo not drawn) [Compound 153]	87	75	11	84				
OC(c1ccccc1F)c1cc(-c2ccncc2)sc1-c1nnc[nH]1 (stereo not drawn) [Compound 155]	53	29	28	64				
COc1ccc(C(O)c2cc(-c3ccncc3)sc2-c2nnc[nH]2)c(C)c1 (stereo not drawn) [Compound 158]	69	18	20	94				
OC(c1cccc(C(F)(F)F)c1)c1cc(-c2ccncc2)sc1-c1nnc[nH]1 (stereo not drawn) [Compound 159]	31	18	5	61				
OC(c1ccc(F)cc1F)c1cc(-c2ccncc2)sc1-c1nnc[nH]1 (stereo not drawn) [Compound 162]	83	38	33	93				
CC(=O)Nc1cc(-c2sc(-c3nnc[nH]3)c(Sc3ccc(Cl)cc3)c2C#N)ccn1 [Compound 166]	85	92	3	82				

The remaining lines, values ahead:

inhibition at 1 µM (Human PI3K delta) [%]	inhibition at 1.1 µM (Human PI3K alpha) [%]	inhibition at 1 µM (Human PI3K gamma) [%]	inhibition at 1.1 µM (Human PI3K beta) [%]	p110 alpha Percent Inhibition (Human PI3K alpha) [%]	p110 delta Percent Inhibition (Human PI3K delta) [%]	p110 gamma Percent Inhibition (Human PI3K gamma) [%]	p110 beta Percent Inhibition (Human PI3K beta) [%]	SMILES
105	77	24	100					CC(=O)Nc1cc(-c2cc(C(c3ccc(Cl)cc3)N3CCC(CN)C3)c(-c3nnc[nH]3)s2)ccn1 (stereo not drawn) [Compound 139]
111		19	94	63				CC(=O)Nc1cc(-c2cc(C(c3ccc(Cl)cc3)N3CC(N(C)C)C3)c(-c3nnc[nH]3)s2)ccn1 (stereo not drawn) [Compound 144]
97	64	9	98					CC(=O)Nc1cc(-c2cc(C(O)(CCCN(C)C)c3ccc(Cl)cc3)c(-c3nnc[nH]3)s2)ccn1 (stereo not drawn) [Compound 145]
110	67	23	103					O=C(Nc1cc(-c2cc(C(c3ccc(Cl)cc3)N3CCNCC3)c(-c3nnc[nH]3)s2)ccn1)C1CC1 (stereo not drawn) [Compound 146]
107	83	18	96					OC(c1ccc(Cl)cc1)c1cc(-c2ccnc(Nc3ncco3)c2)sc1-c1nnc[nH]1 (stereo not drawn) [Compound 147]
108	72	17	105					CC(=O)Nc1cc(-c2cc(C(c3ccc(Cl)cc3)N3CCC3)c(-c3nnc[nH]3)s2)ccn1 (stereo not drawn) [Compound 151]
106	61	16	97					COC(=O)Nc1cc(-c2cc(C(c3ccc(Cl)cc3)N3CCNCC3)c(-c3nnc[nH]3)s2)ccn1 (stereo not drawn) [Compound 152]
108	79	39	108					CC(=O)Nc1cc(-c2cc(C(c3ccc(Cl)cc3)N3CCNCC3)c(-c3nnc[nH]3)s2)ccn1 (stereo not drawn) [Compound 154]
101	55	7	68					CC(=O)Nc1cc(-c2cc(C(c3ccc(Cl)cc3)N3CCN(CC(F)(F)F)CC3)c(-c3nnc[nH]3)s2)ccn1 (stereo not drawn) [Compound 157]
107	74	20	101					CC(=O)Nc1cc(-c2cc(C(c3ccc(Cl)cc3)N(C)C3CN(C)C3)c(-c3nnc[nH]3)s2)ccn1 (stereo not drawn) [Compound 160]
40	14	7	60					Cc1cc(-c2cc(C(c3ccc(Cl)cc3)N(C)C)c(-c3nnc[nH]3)s2)ccn1 (stereo not drawn) [Compound 161]
106	97	25	110					CN[C@H]1CCN(C(c2ccc(Cl)cc2)c2cc(-c3ccnc(NC(C)=O)c3)sc2-c2nnc[nH]2)C1 (stereo partly drawn) [Compound 163]
112	100	44	107					CC(=O)Nc1cc(-c2cc(C(c3ccc(Cl)cc3)N3CC[C@H](O)C3)c(-c3nnc[nH]3)s2)ccn1 (stereo partly drawn) [Compound 164]
87	64	14	77					CC(=O)Nc1cc(-c2sc(-c3nnc[nH]3)c(C(O)c3ccc(Cl)cc3)c2C#N)ccn1 (stereo not drawn) [Compound 165]
